# Measurements taken from BindingDB's records for doi:10.1021/jf103164r (Rutgers University, 2011).
# Biological target: T1, Dihydrofolate reductase (Homo sapiens, UniProt P00374)
# T1 sequence (P00374 whole entry): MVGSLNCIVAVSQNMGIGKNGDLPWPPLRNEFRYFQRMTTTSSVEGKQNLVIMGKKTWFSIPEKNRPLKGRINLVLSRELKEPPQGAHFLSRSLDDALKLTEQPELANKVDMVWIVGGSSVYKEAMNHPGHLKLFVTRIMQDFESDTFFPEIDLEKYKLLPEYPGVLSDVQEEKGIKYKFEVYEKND
# Test: Inhibition of human DHFR
row,IC50 [µM],SMILES
1,300,"Nc1nnc(CCC(=O)c2cccs2)s1 [3-(5-Amino-[1,3,4]thiadiazol-2-yl)-1-(thiophen-2-yl)propan-1-one]"
2,1040,CS(=O)(=O)c1ccc2nc(N)sc2c1 [6-(methylsulfonyl)benzo[d]thiazol-2-amine]
3,312,Nc1nc2ccc(OC(F)(F)F)cc2s1 [SMR000058231]
